Consider four molecules from patent US20150272939A1, “Identification of Small Molecule Inhibitors of Jumonji AT-Rich Interactive Domain 1A (JARID1A) and 1B (JARID1B) Histone Demethylase” (Yale University, priority 2012, published 2015).

Test [1] in a line: AlphaScreen counterscreen against bio-H3K4me2 peptide in the absence of enzyme (artifact signal).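 Note: counterscreen run without enzyme against bio-H3K4me2 peptide to remove false positive hits from the JARID1 demethylase AlphaScreen screen.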 As to conditions: effect of the compound when incubated with bio-H3K4me2 peptide (counterscreen, no enzyme). For orientation: Alpha assays give light when donor and acceptor beads are brought close together.
A further test deals with T1, JARID1A (Homo sapiens, UniProt P29375).
T1 construct: the high-throughput screen of the invention utilizes full length JARID1A or JARID1B; FLAG (N); made in house; host or cells: Sf21 insect cells (baculovirus)
Put plainly: FLAG-JARID1A histone demethylase assay with AlphaScreen detection (HTS and dose response). The test is classed as biochemical. As to conditions: for IC50: dose response, 50 μM Fe (II), read-out: IC50 against JARID1A. As to the method:
(§1) Histone demethylase assays were performed in 384 well white plates (Corning 3574). Demethylase buffer conditions for FLAG-JARID1B were as follows: 10 μM α-KG, 100 μM ascorbate, 50 μM (NH4)2Fe(SO4)2, 50 mM Hepes (pH 7.5), 0.01% (v/v) Tween 20, and 0.1% (w/v) bovine serum albumin. The demethylase reactions included 64 nM bio-H3K4me3 peptide alone or in the presence of 4 nM FLAG-JARID1B enzyme in a 10 μl reaction at 25° C. for 30 minutes. As a positive control, 64 nM bio-H3K4me2 peptide was assayed in the absence of enzyme. Assay conditions for FLAG-JARID1C is the same as for FLAG-JARID1B except that 20 nM enzyme was used. For FLAG-JARID1A, the demethylase buffer was similar to FLAG-JARID1B, except that 125 μM α-KG and 13 nM FLAG-JARID1A enzyme were used. The His-FLAG-UTX and FLAG-JMJD3 demethylase assays also employed the same buffer conditions as for FLAG-JARID1B, with 64 nM bio-H3K27me3 peptide assayed with or without 25 nM His-FLAG-UTX enzyme or 50 nM FLAG-JMJD3 (BPS Bioscience, 50115), and 64 nM bio-H3K27me2 peptide as a positive control. JARID1A, JARID1C, UTX, and JMJD3 histone demethylase assays proceeded at 37° C. for 1 hour.
(§2) The AlphaScreen General IgG (Protein A) detection kit was obtained from PerkinElmer. Demethylated H3K4 products were detected using AlphaScreen antibody/bead mix containing 7.5 mM ethylenediaminetetraacetic acid (EDTA) and 0.15 μg/ml anti-H3K4me1 antibody in a final volume of 20 μl. For detection of demethylated H3K27 products, the AlphaScreen antibody/bead mix containing 7.5 mM EDTA and 0.15 μg/ml anti-H3K27me2 antibody in a final volume of 20 μl. The luminescence signal was measured using the Envision (PerkinElmer) or Pherastar (BMG Labtech) Platereaders.
FLAG-JARID1A was screened against 9,600 compounds. These compound libraries were from the Yale Center for Molecular Discovery. The libraries screened include the MicroSource Gen-Plus, MicroSource Pure Natural Products, NIH Clinical Collection, Enzo Epigenetics, and ChemBridge MW-Set libraries. Compounds dissolved in dimethyl sulfoxide (DMSO) were pintooled into a 384 well plate containing bio-H3K4me3 peptide in demethylase buffer to a final concentration of 20 μM. The reactions were initiated by the addition of 13 nM FLAG-JARID1A, and detected as described above. To eliminate the false positive hits, a counterscreen was performed against bio-H3K4me2 in the absence of enzyme.

For another test, the target named is T2, JARID1B (Homo sapiens, UniProt Q9UGL1).
T2 construct: The FLAG tagged full length JARID1B enzyme was expressed in Sf21 insect cells using FLAG-JARID1B baculoviruses; FLAG (N); made in house; host or cells: Sf21 insect cells (baculovirus)
Put plainly: FLAG-JARID1B histone demethylase assay with AlphaScreen detection (HTS and dose response).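 For Assay Signal (percent): compound tested at 20 µM.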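 For Assay − Artifact Signal (percent): compound tested at 20 µM.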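 Note: FLAG-tagged JARID1B at 4 nM acting on a biotinylated H3K4me3 peptide, demethylation read by AlphaScreen luminescence, with hits checked against bio-H3K4me2 without enzyme.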 The test is classed as biochemical.

The next test deals with T3, UTX (Homo sapiens, UniProt O15550).
T3 construct: His (N); FLAG (N); made in house; host or cells: Sf21 insect cells (baculovirus)
Nature of the test: His-FLAG-UTX H3K27me3 demethylase assay with AlphaScreen detection. As to conditions: compound 10 μM, 64 nM bio-H3K27me3 peptide. The test is classed as biochemical. Here is the method: as §1, with “The His-FLAG-UTX and FLAG-JMJD3 demethylase assays also employed the same buffer conditions as for FLAG-JARID1B, with 64 nM bio-H3K27me3 peptide assayed with or without 25 nM His-FLAG-UTX enzyme or 50 nM FLAG-JMJD3 (BPS Bioscience, 50115), and 64 nM bio-H3K27me2 peptide as a positive control. JARID1A, JARID1C, UTX, and JMJD3 histone demethylase assays proceeded at 37° C. for 1 hour.” left out
The AlphaScreen General IgG (Protein A) detection kit was obtained from PerkinElmer. Demethylated H3K4 products were detected using AlphaScreen antibody/bead mix containing 7.5 mM ethylenediaminetetraacetic acid (EDTA) and 0.15 μg/ml anti-H3K4me1 antibody in a final volume of 20 μl. […] The luminescence signal was measured using the Envision (PerkinElmer) or Pherastar (BMG Labtech) Platereaders.

For a further test, the target named is T4, JARID1C (Homo sapiens, UniProt P41229).
T4 construct: FLAG (N); made in house; host or cells: Sf21 insect cells (baculovirus)
Nature of the test: FLAG-JARID1C histone demethylase assay with AlphaScreen detection. The test is classed as biochemical. To be noted: compound 10 μM, 64 nM bio-H3K4me3 peptide. Here is the method:
as §1, §2

Setting [2] is: compound 10 μM, 64 nM bio-H3K4me3 peptide.

“And” between values parts separate entries of the source, which are not always exact repeats. Equal values may be shown once. Some results are limits rather than exact numbers.

T2 sequence (Q9UGL1 whole entry): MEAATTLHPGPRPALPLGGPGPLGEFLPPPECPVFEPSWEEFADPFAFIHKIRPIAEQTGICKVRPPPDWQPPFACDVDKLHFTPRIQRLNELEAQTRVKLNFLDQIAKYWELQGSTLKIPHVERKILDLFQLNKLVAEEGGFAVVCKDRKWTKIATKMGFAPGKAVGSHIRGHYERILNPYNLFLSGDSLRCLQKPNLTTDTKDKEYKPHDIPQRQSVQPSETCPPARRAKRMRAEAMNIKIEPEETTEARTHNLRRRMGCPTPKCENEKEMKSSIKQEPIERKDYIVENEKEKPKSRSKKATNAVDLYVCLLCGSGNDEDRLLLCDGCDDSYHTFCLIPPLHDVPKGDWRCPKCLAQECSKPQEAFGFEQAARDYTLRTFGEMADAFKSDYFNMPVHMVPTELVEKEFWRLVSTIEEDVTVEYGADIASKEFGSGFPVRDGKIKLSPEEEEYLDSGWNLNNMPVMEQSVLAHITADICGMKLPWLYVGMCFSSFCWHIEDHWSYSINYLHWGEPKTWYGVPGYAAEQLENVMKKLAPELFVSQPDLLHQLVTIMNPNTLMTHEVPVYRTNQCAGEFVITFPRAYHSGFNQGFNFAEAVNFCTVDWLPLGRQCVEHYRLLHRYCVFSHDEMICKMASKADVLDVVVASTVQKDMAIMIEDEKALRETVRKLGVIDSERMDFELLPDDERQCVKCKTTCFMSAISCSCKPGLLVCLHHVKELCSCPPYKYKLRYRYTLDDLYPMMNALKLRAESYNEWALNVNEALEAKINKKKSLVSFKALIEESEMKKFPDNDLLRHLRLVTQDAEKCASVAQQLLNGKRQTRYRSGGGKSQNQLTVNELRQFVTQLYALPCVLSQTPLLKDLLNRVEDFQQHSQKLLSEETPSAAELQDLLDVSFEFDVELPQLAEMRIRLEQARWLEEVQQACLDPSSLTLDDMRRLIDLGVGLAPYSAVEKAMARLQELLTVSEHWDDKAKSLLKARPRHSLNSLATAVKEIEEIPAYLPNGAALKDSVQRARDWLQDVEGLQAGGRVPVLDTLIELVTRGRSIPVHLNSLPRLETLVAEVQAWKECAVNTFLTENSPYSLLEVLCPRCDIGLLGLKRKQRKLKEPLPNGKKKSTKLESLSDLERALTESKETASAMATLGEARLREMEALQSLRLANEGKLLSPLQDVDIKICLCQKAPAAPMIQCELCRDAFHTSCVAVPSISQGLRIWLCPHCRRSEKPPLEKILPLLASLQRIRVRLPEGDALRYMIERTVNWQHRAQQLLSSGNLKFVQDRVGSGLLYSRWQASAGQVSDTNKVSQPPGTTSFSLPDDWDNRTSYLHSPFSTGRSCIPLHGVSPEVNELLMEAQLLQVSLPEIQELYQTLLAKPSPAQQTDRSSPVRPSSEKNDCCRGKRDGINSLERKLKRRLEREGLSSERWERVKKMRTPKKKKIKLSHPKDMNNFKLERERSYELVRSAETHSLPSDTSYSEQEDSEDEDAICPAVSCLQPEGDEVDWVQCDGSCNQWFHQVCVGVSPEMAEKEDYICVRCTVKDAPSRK
T1 sequence (P29375 whole entry): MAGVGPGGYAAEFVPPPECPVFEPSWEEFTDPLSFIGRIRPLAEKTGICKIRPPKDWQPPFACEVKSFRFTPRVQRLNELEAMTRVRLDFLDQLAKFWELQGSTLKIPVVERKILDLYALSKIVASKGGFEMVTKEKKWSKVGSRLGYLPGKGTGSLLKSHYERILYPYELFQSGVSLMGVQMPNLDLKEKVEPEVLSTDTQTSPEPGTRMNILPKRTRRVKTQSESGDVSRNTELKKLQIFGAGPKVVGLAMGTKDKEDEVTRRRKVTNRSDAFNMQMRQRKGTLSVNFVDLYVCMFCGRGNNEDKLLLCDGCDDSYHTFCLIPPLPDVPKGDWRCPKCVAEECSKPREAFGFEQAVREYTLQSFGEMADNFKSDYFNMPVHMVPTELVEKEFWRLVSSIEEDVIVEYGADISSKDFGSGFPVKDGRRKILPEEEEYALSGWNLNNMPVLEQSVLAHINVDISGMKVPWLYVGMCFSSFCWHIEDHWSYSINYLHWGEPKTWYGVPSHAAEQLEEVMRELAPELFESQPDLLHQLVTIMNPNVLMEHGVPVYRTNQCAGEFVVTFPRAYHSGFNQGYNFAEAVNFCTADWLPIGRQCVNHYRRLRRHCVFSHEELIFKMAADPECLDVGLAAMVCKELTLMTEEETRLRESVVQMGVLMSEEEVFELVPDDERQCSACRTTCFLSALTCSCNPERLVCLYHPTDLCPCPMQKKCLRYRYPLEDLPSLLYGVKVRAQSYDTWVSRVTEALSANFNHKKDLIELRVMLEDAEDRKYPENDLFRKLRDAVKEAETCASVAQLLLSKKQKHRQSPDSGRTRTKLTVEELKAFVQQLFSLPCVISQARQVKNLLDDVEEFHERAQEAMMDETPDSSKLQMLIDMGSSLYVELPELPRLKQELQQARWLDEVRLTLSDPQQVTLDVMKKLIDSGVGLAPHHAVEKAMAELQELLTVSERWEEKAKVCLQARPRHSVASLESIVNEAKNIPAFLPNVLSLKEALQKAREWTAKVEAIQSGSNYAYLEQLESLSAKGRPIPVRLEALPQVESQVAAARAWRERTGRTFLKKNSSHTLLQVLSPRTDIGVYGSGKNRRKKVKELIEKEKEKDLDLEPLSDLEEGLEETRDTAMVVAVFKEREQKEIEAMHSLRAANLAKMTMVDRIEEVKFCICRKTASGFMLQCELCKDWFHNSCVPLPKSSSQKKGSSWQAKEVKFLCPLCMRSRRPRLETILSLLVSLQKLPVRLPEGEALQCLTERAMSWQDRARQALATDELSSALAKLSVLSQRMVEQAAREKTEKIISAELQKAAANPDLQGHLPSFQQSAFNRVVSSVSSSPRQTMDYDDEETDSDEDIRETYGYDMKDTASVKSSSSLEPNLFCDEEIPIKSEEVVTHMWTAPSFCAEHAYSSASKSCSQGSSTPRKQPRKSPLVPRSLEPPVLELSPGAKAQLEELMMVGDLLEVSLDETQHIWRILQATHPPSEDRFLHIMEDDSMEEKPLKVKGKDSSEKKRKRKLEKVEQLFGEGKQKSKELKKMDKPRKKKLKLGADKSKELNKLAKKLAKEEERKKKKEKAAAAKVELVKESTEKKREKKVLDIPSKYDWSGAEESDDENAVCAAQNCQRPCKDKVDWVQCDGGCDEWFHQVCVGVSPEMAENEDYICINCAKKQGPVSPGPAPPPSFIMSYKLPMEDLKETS
T3 sequence (O15550 whole entry): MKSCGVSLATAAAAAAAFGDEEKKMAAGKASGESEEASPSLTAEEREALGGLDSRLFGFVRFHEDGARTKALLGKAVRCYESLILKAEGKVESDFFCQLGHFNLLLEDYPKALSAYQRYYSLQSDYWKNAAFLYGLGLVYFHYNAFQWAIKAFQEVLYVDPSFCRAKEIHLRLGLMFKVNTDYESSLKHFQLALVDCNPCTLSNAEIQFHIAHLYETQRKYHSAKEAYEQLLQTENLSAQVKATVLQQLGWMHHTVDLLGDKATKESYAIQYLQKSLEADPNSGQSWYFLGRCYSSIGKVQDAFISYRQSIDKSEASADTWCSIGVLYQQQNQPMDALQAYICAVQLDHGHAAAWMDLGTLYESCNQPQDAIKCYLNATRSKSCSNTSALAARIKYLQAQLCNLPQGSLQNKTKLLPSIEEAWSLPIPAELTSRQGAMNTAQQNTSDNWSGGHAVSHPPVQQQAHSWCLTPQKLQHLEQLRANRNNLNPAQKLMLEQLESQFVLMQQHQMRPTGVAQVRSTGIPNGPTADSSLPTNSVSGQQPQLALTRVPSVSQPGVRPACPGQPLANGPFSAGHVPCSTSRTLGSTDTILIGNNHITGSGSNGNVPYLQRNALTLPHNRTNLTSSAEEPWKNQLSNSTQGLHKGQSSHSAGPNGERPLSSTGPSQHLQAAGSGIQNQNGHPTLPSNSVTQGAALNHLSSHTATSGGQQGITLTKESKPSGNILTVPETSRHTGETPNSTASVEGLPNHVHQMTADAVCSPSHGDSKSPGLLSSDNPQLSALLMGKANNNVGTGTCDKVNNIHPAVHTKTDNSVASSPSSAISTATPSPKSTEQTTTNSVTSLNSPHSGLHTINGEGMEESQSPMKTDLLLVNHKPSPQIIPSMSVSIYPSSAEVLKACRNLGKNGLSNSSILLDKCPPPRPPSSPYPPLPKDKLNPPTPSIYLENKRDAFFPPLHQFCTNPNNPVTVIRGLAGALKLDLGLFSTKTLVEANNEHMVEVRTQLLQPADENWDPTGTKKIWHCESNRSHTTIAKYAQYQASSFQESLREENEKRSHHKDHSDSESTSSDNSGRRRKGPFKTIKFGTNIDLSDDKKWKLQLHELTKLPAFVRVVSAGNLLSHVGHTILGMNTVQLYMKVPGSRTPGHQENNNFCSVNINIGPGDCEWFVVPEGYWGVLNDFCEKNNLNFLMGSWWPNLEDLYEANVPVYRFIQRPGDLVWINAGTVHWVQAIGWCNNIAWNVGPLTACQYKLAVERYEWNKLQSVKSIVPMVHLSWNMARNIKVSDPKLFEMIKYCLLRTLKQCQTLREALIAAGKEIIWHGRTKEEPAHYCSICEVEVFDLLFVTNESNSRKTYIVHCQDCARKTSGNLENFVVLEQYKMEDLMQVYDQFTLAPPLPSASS

The IC50 is the concentration at which inhibition is half-maximal. On to `COc1ccc(OC)c(Nc2nc(=O)c3cccnc3s2)c1` [YU151897], for which, in test [1], the “Artifact Signal (percent)” value was −2.12%. For the same molecule, the IC50 on JARID1A is not above 3 µM. For the same molecule, at JARID1B (assay signal minus artifact signal), the “Assay − Artifact Signal (percent)” value came to 42.55%. The inhibition at 20 µM on JARID1B (high-throughput screen, compound 20 μM, standard demethylase conditions (10 μM α-KG, 50 μM Fe (II)), read-out: Inhibitory effect (percent)) came to 47.6%. Moreover, at JARID1B (validation of HTS actives, effect of compound in JARID1B AlphaScreen assay), the “Assay Signal (percent)” value stood at 40.43%.

Consider `O=C(O)c1ccnc(C(=O)O)c1` [2,4-PDCA, 2,4-pyridinedicarboxylic acid monohydrate, reference compound], for which the UTX demethylase activity result on UTX is on record as “did not inhibit”. In addition, the JARID1A demethylase activity result at JARID1A (setting [2]) is reported as “inhibited”. Moreover, at JARID1A, the half-maximal inhibitory concentration (IC50) was 4.1 µM and ~4 µM. The JARID1C demethylase activity result at JARID1C was “inhibited”. In addition, the JARID1B demethylase activity result on JARID1B (setting [2]) was “inhibited”.

Consider `C[C@](N)(Cc1ccc(O)c(O)c1)C(=O)O` [Methyldopa], for which the IC50 on JARID1A was more than 1 µM.

Consider `Sc1ncnc2nc[nH]c12` [Mercaptopurine], for which the IC50 on JARID1A is approximately 1 µM.
